Experimental data as given in patent US9682049B2, “Non-racemic mixtures of various ratios of D- and L-methadone and methods of treating pain using the same” (priority 2015, dated 2017).
Where a name gives a salt, the structure may show the parent alone. Read-outs that look alike come from different tables or passages of the source.

Tests used:
[1] = Solubility of 75/25 D/L methadone HCl drug substance; assay type: physicochemical
Text: General Properties of 75/25 D/L Methadone-HCl Included the Following Physical Characteristics: […]

[2] = test system: painful diabetic neuropathy; assay: Changes in average daily pain scores, double-blind randomized crossover study vs placebo; assay type: in vivo, human
Experimental: (§1) Potential patients were recruited by advertising and screened via interview, review of health history and medications, physical examination, lab work, and ECG.
(§2) The average daily pain score and the worst daily pain scores were measured. Patients recorded their pain score four times daily on a scale of 0 to 10. Additionally, pain scores were measured using a Visual Analog Scale (VAS) during weekly visits to the study center.

[3] = test system: patients with painful diabetic neuropathy; assay: Patient withdrawal because of side effects in the 3:1 D:L-methadone study; settings: terminated the study because of side effects (mostly nausea and vomiting)
Experimental: Patients were subjected to forceful weekly titration of doses from 15 mg the first week, to 30 mg the second week, and to 40 mg the third and fourth weeks.

[4] = test system: painful diabetic neuropathy; assay: Changes in VAS scores (SF-MPQ), double-blind randomized crossover study vs placebo; assay type: in vivo, human
Experimental: as §1, §2
VAS is a measurement instrument that measures a characteristic or attitude that is believed to range across a continuum of values. For example, the amount of pain that a patient feels may range across a continuum from no pain to an extreme amount of pain. […] In order to capture this underlying continuum, VAS was devised, and in the present study, VAS was used as described here. (See e.g., D. Gould et al., J. Clin. Nursing, 10: 697-706 (2001)).
VAS was conducted by using a horizontal line, 100 mm in length, anchored by word descriptors at each end, as illustrated below. Patients marked on a line (as shown below) the point that best represented their perception of pain.
A VAS score was determined by measuring in millimeters from the left hand end of the line to the point that the patient marked.

[5] = test system: patients with neuropathic pain; settings: Morley study; cited from earlier work
neuropathic pain [6] = settings: cited from earlier work; for placebo-adjusted relief of average daily pain intensity: Morley
neuropathic pain model = settings: intrathecal, rats; not reversed by naloxone; cited from earlier work
neuropathic pain [7] = settings: Lemberg et al. 2006; cited from earlier work
neuropathic pain [8] = settings: small group of patients, high dose; cited from earlier work

CCC(=O)C(CC(C)N(C)C)(c1ccccc1)c1ccccc1 (racemic) [75:25 D:L-methadone, Mixture of 75% (6S)-6-(dimethylamino)-4,4-dipheylhepan-3-one hydrochloride and 25% (6R)-6-(dimethylamino)-4,4-dipheylhepan-3-one hydrochloride]
Solubility ([1]; alcohols): readily soluble | Solubility ([1]; ether): practically insoluble | Solubility ([1]; methylene chloride): readily soluble | Solubility ([1]; water): readily soluble | Change in average daily pain score, Difference in Means vs placebo (95% CI) ([2]; 15 mg): −0.84 (−1.64; −0.04) | Change in average daily pain score, Mean (SD) ([2]; 15 mg, scale of 0 to 10, two clinical sites combined): −0.88 (1.46) | Change in average daily pain score, Difference in Means vs placebo (95% CI) ([2]; 30 mg): −1.14 (−2.30; 0.02) | Change in average daily pain score, Mean (SD) ([2]; 30 mg): −1.41 (1.87) | Change in average daily pain score, Difference in Means vs placebo (95% CI) ([2]; 40 mg (1st Week)): −1.08 (−2.20; 0.03) | Change in average daily pain score, Mean (SD) ([2]; 40 mg (1st Week)): −1.57 (1.98) | Change in average daily pain score, Difference in Means vs placebo (95% CI) ([2]; 40 mg (2nd Week)): −1.17 (−2.28; −0.06) | Change in average daily pain score, Mean (SD) ([2]; 40 mg (2nd Week)): −1.73 (2.01) | Change in average daily pain score, Difference in Means vs placebo (95% CI) ([2]; 40 mg (Both Weeks)): −1.13 (−1.88; −0.38) | Change in average daily pain score, Mean (SD) ([2]; 40 mg (Both Weeks)): −1.65 (1.97) | Change in average daily pain score, Difference in Means vs placebo (95% CI) ([2]; 15-30 mg Combined): −0.99 (1.67; −0.31) | Change in average daily pain score, Mean (SD) ([2]; 15-30 mg Combined): −1.14 (1.67) | patient withdrawal rate [3]: 17% | Change in VAS score (SF-MPQ), median ([4]; 15 mg): −7.0 | Change in VAS score, difference in means vs placebo (95% CI) ([4]; 15 mg): −10.1 (−21.0; 0.9) | Change in VAS score (SF-MPQ), mean ([4]; 15 mg, VAS 100 mm line, primary efficacy population): −12.8 | Change in VAS score (SF-MPQ), mean ([4]; 30 mg): −14.9 | Change in VAS score (SF-MPQ), median ([4]; 30 mg): −8.0 | Change in VAS score, difference in means vs placebo (95% CI) ([4]; 30 mg): −6.3 (−17.4; 4.9) | Change in VAS score (SF-MPQ), mean ([4]; 40 mg (1st Week)): −19.5 | Change in VAS score (SF-MPQ), median ([4]; 40 mg (1st Week)): −13.0 | Change in VAS score, difference in means vs placebo (95% CI) ([4]; 40 mg (1st Week)): −10.5 (−19.6; −1.4) | Change in VAS score (SF-MPQ), mean ([4]; 40 mg (2nd Week)): −20.7 | Change in VAS score (SF-MPQ), median ([4]; 40 mg (2nd Week)): −10.0 | Change in VAS score, difference in means vs placebo (95% CI) ([4]; 40 mg (2nd Week)): −8.1 (−18.3; 2.2) | Change in VAS score (SF-MPQ), mean ([4]; 40 mg (Both Weeks)): −20.1 | Change in VAS score (SF-MPQ), median ([4]; 40 mg (Both Weeks)): −12.0 | Change in VAS score, difference in means vs placebo (95% CI) ([4]; 40 mg (Both Weeks)): −9.3 (−15.8; − 2.8) | Change in VAS score (SF-MPQ), mean ([4]; 15-30 mg (Combined), pooled): −13.9 | Change in VAS score (SF-MPQ), median ([4]; 15-30 mg (Combined), pooled): −8.0 | Change in VAS score, difference in means vs placebo (95% CI) ([4]; 15-30 mg (Combined), pooled): −8.1 (−15.6; −0.6) | placebo-adjusted relief of average daily pain intensity ([4]; lowest tested dose (15 mg) of the 3:1 mixture): −10.1 | placebo-adjusted relief of average daily pain intensity compared with 10 mg of racemic methadone ([4]; vs Morley 10 mg racemic methadone): 3 times better | placebo-adjusted relief of average daily pain intensity compared with 20 mg of racemic methadone ([4]; vs Morley 20 mg racemic methadone): 54 % better

CCC(=O)C(CC(C)N(C)C)(c1ccccc1)c1ccccc1 (racemic) [racemic methadone, methadone]
patient withdrawal rate [5]: 37% | placebo-adjusted relief of average daily pain intensity (neuropathic pain [6]; 10 mg of racemic methadone): −3.20 | placebo-adjusted relief of average daily pain intensity (neuropathic pain [6]; 20 mg of racemic methadone): −6.56 | analgesic effect in neuropathic pain (neuropathic pain [6]; Morley et al. 2003): analgesic effect

CCC(=O)C(C[C@H](C)N(C)C)(c1ccccc1)c1ccccc1 [D-methadone, (S)-(+)-methadone]
antinociception (neuropathic pain model): produced antinociception | potency in neuropathic pain (neuropathic pain [7]): inactive | analgesic response (neuropathic pain [8]): no analgesic response

CCC(=O)C(C[C@@H](C)N(C)C)(c1ccccc1)c1ccccc1 [L-methadone, (R)-(−)-methadone]
potency in neuropathic pain (neuropathic pain [7]): greater potency than other opioids
